Laboratory results taken from patent US7199150B2, “Amino alcohol compounds” (Sankyo Company, Limited, priority 2002, dated 2007).

How the values were obtained:
[1] = tested on: HvGR (Host Versus Graft Reaction) in Rats; assay: Inhibitory activities against HvGR in rats, combination with immunosuppressants (Test Example 3); type: in vivo, Lewis rats; conditions: oral 5 ml/kg once daily for 4 successive days; suspensions: cyclosporin A 0.08 mg/5 ml, tacrolimus 0.08 mg/5 ml, Compound A 0.008 mg/5 ml; popliteal lymph node weight
Description: Determination of Inhibitory Activities of Compounds against HvGR (Host Versus Graft Reaction) in Rats (1) Two strains of rats (Lewis rats (male, 6 weeks of age, Charles River Japan Inc.) and […] (male, 7 weeks of age, Japan SLC Inc.) were used. Five rats/group were used. […] Spleen cells were isolated from the spleens of […] or Lewis rats and floated in RPMI1640 medium (Life Technologies Inc.) at a concentration of 1×10^8 cells/ml. 0.1 ml of the medium containing the free-floating spleen cells of […] or 0.1 ml of the medium containing the free-floating spleen cells of Lewis rats were intracutaneously injected into the bilateral foot-pads of hindlimbs of Lewis rats. (3) Administration of Compounds […] In both the “same strain group” (Lewis rats treated with spleen cells of Lewis rats but not with the compounds) and “control group” (Lewis rats treated with the spleen cells of […] but not with the compounds), 0.5% tragacanth solution was orally administered. […] The inhibitory activities of the compounds were calculated from the “HvGR-induced changes in the popliteal lymph node weights” of individual rats in drug-treated group versus the average “HvGR-induced changes in the popliteal lymph node weights” in the control group.

[2] = tested on: Adjuvant-Induced Arthritis; assay: Inhibitory activities against adjuvant-induced arthritis (Test Example 2); type: in vivo, rats (usually Lewis rats); conditions: oral, once daily for 21 successive days; foot swelling volume one day after final administration
Description: Determination of Inhibitory Activities of Compounds against Adjuvant-Induced Arthritis
(1) Preparation of Adjuvant
Adjuvant was prepared by suspension of killed Mycobacterium butyricum in mineral oil at a concentration of 2 mg/ml, followed by application of ultrasonic waves.
(2) Preparation of Test Compound
Test compounds were suspended or dissolved in 0.5% tragacanth solution.
(3) Induction of Adjuvant Arthritis
0.05 ml of adjuvant solution prepared as described in (1) was intracutaneously injected into the right foot-pad of rats (usually Lewis rats). Five rats/group were usually used. Adjuvant was not injected in one group of rats (normal group).
(4) Administration of Compound
Compounds prepared as described in (2) were orally administered to rats at a volume of 5 ml/kg once daily for 21 successive days. 0.5% tragacanth solution was similarly administered to rats in one group injected adjuvant (control group) and a group not injected adjuvant.
(5) Calculation of Inhibitory Activities of Compounds against Adjuvant Arthritis
One day after the final drug administration, the foot volume of each rat was measured by an apparatus for determination of the volume. The average value in normal rats was subtracted from the individual values in the drug-treated and control groups. The difference was expressed as the swelling volume. Inhibitory rate of the compound was calculated from the ratio of the individual swelling volume of the rat treated with the compound to the average swelling volume in the control group.
Inhibitory activities of compounds were expressed as ID50 values (mg/kg) calculated by least squares method based on the doses of the compound and their inhibitory ratios.

[3] = tested on: Host Versus Graft Reaction in Rats; assay: Inhibitory activities against host versus graft reaction (HvGR) in rats (Test Example 1); type: in vivo; conditions: oral, once daily for 4 successive days; HvGR-induced change in popliteal lymph node weight; Lewis rats injected with WKAH/Hkm spleen cells
Description: Determination of Inhibitory Activities of Compounds against Host Versus Graft Reaction in Rats
(1) Two strains of rats [Lewis rats (male, 6 weeks of age, Charles River Japan Inc.) and WKAH/Hkm rats (male, 7 weeks of age, Japan SLC Inc.) were used. Five rats/group were used.
Spleen cells were isolated from the spleens of WKAH/Hkm and Lewis rats and floated in RPMI1640 medium (Life Technologies Inc.) at a concentration of 1×10^8 cells/ml. 0.1 ml of the medium containing the free-floating spleen cells of WKAH/Hkm rats or Lewis rats (1×10^7 of the spleen cells) was then intracutaneously injected into the bilateral foot-pads of hindlimbs of Lewis rats.
(3) Administration of the Compounds
Compounds were suspended in 0.5% tragacanth solution. The suspended compounds were orally administered to rats in the drug-treated group (Lewis rats injected with spleen cells of WKAH/Hkm rats and treated with the compound) at a volume of 5 ml/kg once daily for 4 successive days starting on the day of spleen cell injection. The tragacanth solution (0.5%) was orally administered, instead of the compound-suspended solution, to rats in the “same strain group” (Lewis rats injected with spleen cells of Lewis rats) and the control group (Lewis rats injected with spleen cells of WKAH/Hkm rats and not treated with the compound).
(4) Determination of Inhibitory Activities of Compounds against HvGR
Average weight of the popliteal lymph nodes of the same strain rats was subtracted from individual weights of the popliteal lymph nodes of individual rats (“HvGR-induced changes in weight of the popliteal lymph nodes”). The inhibitory activities of compounds were calculated from the “HvGR-induced changes in weights of the popliteal lymph nodes” of individual rats in the drug-treated group versus the average “HvGR-induced changes in weights of the popliteal lymph nodes” in the control group. The inhibitory activities of compounds were expressed as ID50 values (mg/kg) as calculated by least squares method based on the doses of compounds administered and inhibitory activities at these doses.

[4] = tested on: Mice GvHD (Graft Versus Host Disease); assay: Inhibitory activities against mice GvHD (Test Example 4); type: in vivo, BDF1 mice; conditions: oral 10 ml/kg once daily for 10 successive days; suspensions: cyclosporin A 0.1 mg/10 ml, tacrolimus 0.2 mg/10 ml, Compound B 0.01 mg/10 ml; spleen weight compensated for body weight
Description: Determination of Inhibitory Activities of Compounds against Mice GvHD (Graft Versus Host Disease) (1) Two strains of mice. [BDF1 mice (male, 6 weeks of age, Charles River Japan Inc.) and C57BL/6 mice (male, 7 weeks of age, Charles River Japan Inc.)] were used. Five mice/group (hosts) were used. (2) Induction of GvHD Spleen cells were isolated from the spleens of C57BL/6 mice or BDF1 mice and floated in RPMI1640 medium (Life Technologies Inc.) at a concentration of 2×10^7 cells/ml. 0.5 ml of the medium containing the free-floating spleen cells of C57BL/6 mice) was intravenously injected into the tail vein of BDF1 mice (GvHD induction group) and the same volume of the medium containing free-floating spleen cells of BDF1 mice was intravenously injected into the tail vein of BDF1 mice (the “same strain group”). (3) Administration of Compounds […] Body weight was determined and spleens were weighed, and “spleen weight compensated for the body weight following injection of GvHD” was calculated by dividing the spleen weight by the body weight. […] The inhibitory activities of compounds were calculated from the ratios of individual “spleen weight compensated for body weight following injection of GvHD” to the average “spleen weight compensated for body weight following injection of GvHD” in the control group.

[5] = tested on: Rejection Response against Skin Transplantation of Mice; assay: Inhibitory activities against rejection response against skin transplantation of mice (Test Example 5); type: in vivo; conditions: oral 10 ml/kg once daily for 14 successive days from transplantation; suspensions: cyclosporin A 30 mg/10 ml, tacrolimus 3 mg/10 ml, Compound B 0.1 mg/10 ml; C57BL/6N skin on BALB/cAnN mice
Description: (1) Two strains of mice [C57BL/6N mice (female, 5 weeks of age, Charles River Japan Inc.) and BALB/cAnN mice (female, 5 weeks of age, Charles River Japan Inc.)] were used. Ten mice/group (transplanted individuals) were used.
C57BL/6N mice were sacrificed by cervical dislocation and their skins removed. The skins were cut to 8-mm diameter sizes by biopsy punch (MK706, 8 mm, Kai Industries Co., Ltd.). Next, 8 mm diameter sections of the back skins of BALB/cAnN mice anaesthetized with Avertin were removed by biopsy punch. The skin was cut along the edge of the damaged area by fine ophthalmic scissors. The previously cut skins of C57BL/6N mice were transplanted to the removed areas of the skin in BALB/cAnN mice. The transplanted areas were fixed with Aron Alpha (Sankyo Co., Ltd.). […]
On the 6th day after transplantation (the day of transplantation was defined as day 0), the Coban, SYLKYTEX, sterilized gauze, and Sofratulle were gently removed paying attention not to damage the skin by a pair of scissors. From the next day to 20 days after transplantation, it was determined whether rejection responses occurred in the transplanted skin. This determination was carried out blind, and the median day when the rejection response occurred was calculated.

Structure (SMILES) | HvGR Inhibitory Rate (%) [1] [%] | ID50 values [2] [mg/kg] | HvGR ID50 values [3] [mg/kg] | GvHD Inhibitory Rate (%) [4] [%] | Median Day of Rejection Response [5] [days]
CC(N)(CO)CCc1ccc(C(=O)CCCCc2ccccc2)s1.O=C(O)/C=C\C(=O)O (stereo not shown) [Compound A, 2-amino-2-methyl-4-[5-(5-phenylpentanoyl]thiophen-2-yl]butan-1-ol maleate] | 16.0 |  |  |  | 
C[C@](N)(CO)CCc1ccc(C#CCCCC2CCCCC2)o1.O=C(O)C(=O)O [Example 2, (2R)-2-Amino-2-methyl-4-[5-(5-cyclohexylpent-1-ynyl)furan-2-yl]butan-1-ol oxalate] |  | 0.0899 | 0.714 |  | 
C[C@](N)(CO)CCc1ccc(C#CCCOC2CCCCC2)o1.O=C(O)C(=O)O [Example 3, (2R)-2-Amino-2-methyl-4-[5-(4-cyclohexyloxybut-1-ynyl)furan-2-yl]butan-1-ol oxalate] |  | 0.0774 | 0.116 |  | 
Cn1c(C#CCCCc2ccccc2)ccc1CC[C@@](C)(N)CO.O=C(O)C(=O)O [Example 9, (2R)-2-Amino-2-methyl-4-[1-methyl-5-(5-phenylpent-1-ynyl)pyrrol-2-yl]butan-1-ol oxalate] |  |  | 0.120 |  | 
Cn1c(C#CCCOC2CCCCC2)ccc1CC[C@@](C)(N)CO.Cn1c(C#CCCOC2CCCCC2)ccc1CC[C@@](C)(N)CO.O=C(O)C(=O)O [Example 10, (2R)-2-Amino-2-methyl-4-[1-methyl-5-(4-cyclohexyloxybut-1-ynyl)pyrrol-2-yl]butan-1-ol ½-oxalate] |  |  | 0.276 |  | 
C[C@](N)(CO)CCc1ccc(C#CCCCc2cccc(C(F)(F)F)c2)o1.O=C(O)C(=O)O [Example 15, (2R)-2-Amino-2-methyl-4-{5-[5-(3-trifluoromethylphenyl)pent-1-ynyl]furan-2-yl}butan-1-ol oxalate] |  |  | 0.304 |  | 
C[C@](N)(CO)CCc1ccc(C#CCCCC2CCCCC2)o1.Cl [Example 19, (2R)-2-Amino-2-methyl-4-[5-(5-cyclohexylpent-1-ynyl)furan-2-yl]butan-1-ol hydrochloride] |  | 0.108 | 0.097 |  | 
C[C@](N)(CO)CCc1ccc(C#CCCOC2CCCCC2)o1.Cl [Example 20, (2R)-2-Amino-2-methyl-4-[5-(4-cyclohexyloxybut-1-ynyl)furan-2-yl]butan-1-ol hydrochloride] |  | 0.102 | 0.082 |  | 
Cl.Cn1c(CC[C@@](C)(N)CO)ccc1C(=O)CCCCc1ccccc1 [Example 33, (2R)-2-Amino-2-methyl-4-[1-methyl-5-(5-phenylpentanoyl)pyrrol-2-yl]butan-1-ol hydrochloride] |  | 0.0941 | 0.013 | −2.9 | 15.0
C=CCC1C=C(C)CC(C)CC(OC)C2OC(O)(C(=O)C(=O)N3CCCCC3C(=O)OC(C(C)=CC3CCC(O)C(OC)C3)C(C)C(O)CC1=O)C(C)CC2OC (stereo not shown) [Tacrolimus, 17-allyl-1,14-dihydroxy-12-[2-(4-hydroxy-3-methoxycyclohexyl)-1-methylvinyl]-23,25-dimethoxy-13,19,21,27-tetramethyl-11,28-dioxa-4-azatricyclo[22.3.1.0^4,9]octacos-18-ene-2,3,10,16-tetrone, reference compound] | 25.8 |  |  | 7.6 | 11.0
